Results from US20250213574A1, “THERAPEUTIC COMBINATIONS COMPRISING UBIQUITIN- SPECIFIC-PROCESSING PROTEASE 1 (USP1) INHIBITORS AND CHEMOTHERAPY AGENTS” (KSQ Therapeutics, Inc., priority 2022, published 2025).
Where “and” joins values, the source holds several entries; their conditions need not be identical. Identical values can stand only once. Like-named read-outs stand apart in the source and are kept apart here.

Key:
Type in all cases: cell-based
CAPAN2 = test: Colony formation (CFU) assay, CAPAN2; conditions: CAPAN2, pancreas, CFU ~14 days, wells with DMSO or 300 nM Compound 1, read-out: Chemotherapy nM IC50s
Method: (§1) In vitro experiments were conducted using the colony formation unit (CFU) assay on various cell lines. The CFU assay involved first establishing what cell plating density enabled the development of clearly interspersed colonies on a six-well plate when left to grow for around 14 days. […] At or around day 14 when clearly interspersed colonies were visible in the DMSO-treated wells, the cells were fixed and stained using 0.1% crystal violet in 10% ethanol for 20 minutes at room temperature. The plates were imaged then the amount of crystal violet stain in each well was quantified by extracting the crystal violet into 10% acetic acid and the absorbance measured at 565 nm.
(§2) For certain cell lines, multiple IC50 values were taken, and those are separated by commas. Synergy scores are in parentheticals.

SW948 = test: Colony formation (CFU) assay, SW948; conditions: SW948, colon; for IC50: CFU ~14 days, wells with DMSO or 300 nM Compound 1, read-out: Chemotherapy nM IC50s
Method: as §1, §2

HPAC = test: Colony formation (CFU) assay, HPAC; conditions: Homo sapiens, 336 h, pancreas, CFU ~14 days, wells with DMSO or 300 nM Compound 1, read-out: Chemotherapy nM IC50s
Method: as §1, §2

UWB1289 = test: Colony formation (CFU) assay, UWB1289; conditions: 336 h; UWB1289, ovary; CFU ~14 days; wells with DMSO or 300 nM Compound 1; read-out: Chemotherapy nM IC50s
Method: as §1, §2

ASPC1 = test: Colony formation (CFU) assay, ASPC1; conditions: ASPC1, pancreas
Method: as §1, §2

HCT15 = test: Colony formation (CFU) assay, HCT15; conditions: Homo sapiens, HCT-15, 336 h; HCT15, colon; CFU ~14 days; wells with DMSO or 300 nM Compound 1; read-out: Chemotherapy nM IC50s
Method: as §1, §2

OVSAHO = test: Colony formation (CFU) assay, OVSAHO; conditions: Homo sapiens, 336 h, ovary, CFU ~14 days, wells with DMSO or 300 nM Compound 1, read-out: Chemotherapy nM IC50s
Method: as §1, §2

COV362 = test: Colony formation (CFU) assay, COV362; conditions: COV362, 336 h, read-out: Chemotherapy nM IC50s
Method: as §1, §2

GSU = test: Colony formation (CFU) assay, GSU; conditions: stomach, chemotherapy agent in combination with 300 nM Compound 1
Method: as §1, §2

various cell lines = test: Colony formation (CFU) assay, summary over cell lines of Table 1; conditions: combination of USP1 inhibitor (Compound 1, 300 nM) and the chemotherapy agent
Method: as §1
In certain cell lines, combinations of the disclosure are synergistic. In some aspects, these combinations are determined to have a Bliss score is about 6, about 7, about 8, about 9, about 10, about 11, about 12, about 13, about 14, about 15, about 16, about 17, about 18, about 19, about 20 or about 25.

MSTO211H = test: Colony formation (CFU) assay, MSTO211H; conditions: pleura, CFU ~14 days, wells with DMSO or 300 nM Compound 1, read-out: Chemotherapy nM IC50s
Method: as §1, §2

NCIH1915 = test: Colony formation (CFU) assay, NCIH1915; conditions: NCI-H1915, 336 h; NCIH1915, lung; CFU ~14 days; wells with DMSO or 300 nM Compound 1; read-out: Chemotherapy nM IC50s
Method: as §1, §2

MERO83 = test: Colony formation (CFU) assay, MERO83; conditions: 336 h, CFU ~14 days, wells with DMSO or 300 nM Compound 1, read-out: Chemotherapy nM IC50s
Method: as §1, §2

MERO14 = test: Colony formation (CFU) assay, MERO14; conditions: 336 h, CFU ~14 days, wells with DMSO or 300 nM Compound 1, read-out: Chemotherapy nM IC50s
Method: as §1, §2

A549 = test: Colony formation (CFU) assay, A549; conditions: Homo sapiens, 336 h; A549, lung; CFU ~14 days; wells with DMSO or 300 nM Compound 1; read-out: Chemotherapy nM IC50s
Method: as §1, §2

ACCMESO1 = test: Colony formation (CFU) assay, ACCMESO1; conditions: ACCMESO1, pleura, CFU ~14 days, wells with DMSO or 300 nM Compound 1, read-out: Chemotherapy nM IC50s
Method: as §1, §2

NCIH2452 = test: Colony formation (CFU) assay, NCIH2452; conditions: Homo sapiens, NCI-H2452, 336 h; NCIH2452, pleura; CFU ~14 days; wells with DMSO or 300 nM Compound 1; read-out: Chemotherapy nM IC50s
Method: as §1, §2

HCT116 = test: Colony formation (CFU) assay, HCT116; conditions: HCT116, colon; CFU ~14 days; wells with DMSO or 300 nM Compound 1; read-out: Chemotherapy nM IC50s
Method: as §1, §2

KYSE70 = test: Colony formation (CFU) assay, KYSE70; conditions: KYSE70, esophagus; CFU ~14 days; wells with DMSO or 300 nM Compound 1; read-out: Chemotherapy nM IC50s
Method: as §1, §2

HCC1806 = test: Colony formation (CFU) assay, HCC1806; conditions: HCC1806, breast; CFU ~14 days; wells with DMSO or 300 nM Compound 1; read-out: Chemotherapy nM IC50s (converted)
Method: as §1, §2

SUM149PT = test: Colony formation (CFU) assay, SUM149PT; conditions: breast, CFU ~14 days, wells with DMSO or 300 nM Compound 1, read-out: Chemotherapy nM IC50s
Method: as §1, §2

647V = test: Colony formation (CFU) assay, 647V; conditions: bladder, CFU ~14 days, wells with DMSO or 300 nM Compound 1, read-out: Chemotherapy nM IC50s
Method: as §1, §2

KYSE270 = test: Colony formation (CFU) assay, KYSE270; conditions: KYSE270, esophagus; CFU ~14 days; wells with DMSO or 300 nM Compound 1; read-out: Chemotherapy nM IC50s
Method: as §1, §2

MDAMB231 = test: Colony formation (CFU) assay, MDAMB231; conditions: MDAMB231, breast; CFU ~14 days; wells with DMSO or 300 nM Compound 1; read-out: Chemotherapy nM IC50s
Method: as §1, §2

UMUC3 = test: Colony formation (CFU) assay, UMUC3; conditions: UMUC3, bladder; CFU ~14 days; wells with DMSO or 300 nM Compound 1; read-out: Chemotherapy nM IC50s
Method: as §1, §2

NCIH596 = test: Colony formation (CFU) assay, NCIH596; conditions: NCIH596, lung; CFU ~14 days; wells with DMSO or 300 nM Compound 1; read-out: Chemotherapy nM IC50s
Method: as §1, §2

KU1919 = test: Colony formation (CFU) assay, KU1919; conditions: KU1919, bladder; CFU ~14 days; wells with DMSO or 300 nM Compound 1; read-out: Chemotherapy nM IC50s
Method: as §1, §2

KALS1 = test: Colony formation (CFU) assay, KALS1; conditions: KALS1, nervous system; CFU ~14 days; wells with DMSO or 300 nM Compound 1; read-out: Chemotherapy nM IC50s
Method: as §1, §2

[1] = chemotherapy agent in combination with 300 nM Compound 1

**Q.** How did the IC50 (CAPAN2) turn out when `CC[C@@]1(O)C(=O)OCc2c1cc1n(c2=O)Cc2cc3ccccc3nc2-1` [Campto., camptothecin] was run?
**A.** 11 nM

**Q.** What about the IC50 (CAPAN2; Homo sapiens, Capan-2, 336 h) of the same molecule?
**A.** 8 nM

**Q.** And the IC50 (SW948; Homo sapiens, SW948, 336 h)?
**A.** 10 nM

**Q.** And the IC50 (SW948)?
**A.** 6 nM

**Q.** What about the synergy score (SW948; [1]) of the same molecule?
**A.** (−3)

**Q.** What about the IC50 (HPAC) of the same molecule?
**A.** 5 nM

**Q.** And the IC50 (UWB1289)?
**A.** 18 nM

**Q.** What about the synergy score (ASPC1; [1]) of the same molecule?
**A.** −5

**Q.** And the IC50 (ASPC1; Homo sapiens, 336 h, CFU ~14 days, wells with DMSO or 300 nM Compound 1, read-out: Chemotherapy nM IC50s)?
**A.** 3 nM

**Q.** What about the IC50 (HCT15) of the same molecule?
**A.** 5 nM

**Q.** What about the IC50 (OVSAHO) of the same molecule?
**A.** 177 nM

**Q.** And the IC50 (COV362)?
**A.** 274 nM

**Q.** And the synergy score (GSU)?
**A.** 13

**Q.** And the “synergy of combination with USP1 inhibitor” value (various cell lines)?
**A.** synergy was detected

**Q.** What does the source list for `Nc1nc2[nH]cc(CCc3ccc(C(=O)N[C@@H](CCC(=O)O)C(=O)O)cc3)c2c(=O)[nH]1` [Pemetrex, pemetrexed]?
**A.** IC50 (MSTO211H; Homo sapiens, MSTO-211H, 336 h): 41 nM; IC50 (MSTO211H): 50 nM; IC50 (NCIH1915): 185 nM; IC50 (MERO83): > 3000 nM; IC50 (MERO14): > 3000 nM; IC50 (A549): 6870 nM; IC50 (ACCMESO1; ACC-MESO-1, 336 h): 172 nM; IC50 (NCIH2452): 48 nM

**Q.** For `CO[C@@]12[C@H](COC(N)=O)C3=C(C(=O)C(C)=C(N)C3=O)N1C[C@@H]1N[C@@H]12` [Mito. C, mitomycin C], which IC50 (HCT116) is on record?
**A.** 19 nM

**Q.** And the IC50 (KYSE70)?
**A.** 14 nM and 12 nM

**Q.** What about the IC50 (HCC1806) of the same molecule?
**A.** 1 nM and 2 nM and < 1 nM

**Q.** What about the IC50 (SUM149PT) of the same molecule?
**A.** 5 nM

**Q.** What about the IC50 (647V) of the same molecule?
**A.** 15 nM

**Q.** And the IC50 (KYSE270)?
**A.** 15 nM and 11 nM

**Q.** What about the IC50 (MDAMB231) of the same molecule?
**A.** 14 nM

**Q.** What about the IC50 (UMUC3) of the same molecule?
**A.** 18 nM and 12 nM

**Q.** And the IC50 (NCIH596)?
**A.** 10 nM

**Q.** And the IC50 (ACCMESO1)?
**A.** 10 nM and 13 nM

**Q.** What about the IC50 (KU1919) of the same molecule?
**A.** 16 nM

**Q.** And the IC50 (KALS1)?
**A.** 632 nM
